EC50 data for 48 molecules are collected here from patent USRE49735E1 (BRISTOL-MYERS SQUIBB COMPANY, priority 2010, dated 2023).

Where “and” joins values, the source holds several entries; their conditions need not be identical. Identical values can stand only once.

The test deals with human mGluR5A (Homo sapiens, UniProt P41594). Kind of test: mGluR5 FLIPR Assay. The test is classed as cell-based. Conditions: positive modulator activity; HEK293 (ZF) cells with human mGluR5A and rat GLAST; Ca++ response to ~EC10 glutamate.
Sequence of human mGluR5A (P41594 21-1180 isoform P41594-2): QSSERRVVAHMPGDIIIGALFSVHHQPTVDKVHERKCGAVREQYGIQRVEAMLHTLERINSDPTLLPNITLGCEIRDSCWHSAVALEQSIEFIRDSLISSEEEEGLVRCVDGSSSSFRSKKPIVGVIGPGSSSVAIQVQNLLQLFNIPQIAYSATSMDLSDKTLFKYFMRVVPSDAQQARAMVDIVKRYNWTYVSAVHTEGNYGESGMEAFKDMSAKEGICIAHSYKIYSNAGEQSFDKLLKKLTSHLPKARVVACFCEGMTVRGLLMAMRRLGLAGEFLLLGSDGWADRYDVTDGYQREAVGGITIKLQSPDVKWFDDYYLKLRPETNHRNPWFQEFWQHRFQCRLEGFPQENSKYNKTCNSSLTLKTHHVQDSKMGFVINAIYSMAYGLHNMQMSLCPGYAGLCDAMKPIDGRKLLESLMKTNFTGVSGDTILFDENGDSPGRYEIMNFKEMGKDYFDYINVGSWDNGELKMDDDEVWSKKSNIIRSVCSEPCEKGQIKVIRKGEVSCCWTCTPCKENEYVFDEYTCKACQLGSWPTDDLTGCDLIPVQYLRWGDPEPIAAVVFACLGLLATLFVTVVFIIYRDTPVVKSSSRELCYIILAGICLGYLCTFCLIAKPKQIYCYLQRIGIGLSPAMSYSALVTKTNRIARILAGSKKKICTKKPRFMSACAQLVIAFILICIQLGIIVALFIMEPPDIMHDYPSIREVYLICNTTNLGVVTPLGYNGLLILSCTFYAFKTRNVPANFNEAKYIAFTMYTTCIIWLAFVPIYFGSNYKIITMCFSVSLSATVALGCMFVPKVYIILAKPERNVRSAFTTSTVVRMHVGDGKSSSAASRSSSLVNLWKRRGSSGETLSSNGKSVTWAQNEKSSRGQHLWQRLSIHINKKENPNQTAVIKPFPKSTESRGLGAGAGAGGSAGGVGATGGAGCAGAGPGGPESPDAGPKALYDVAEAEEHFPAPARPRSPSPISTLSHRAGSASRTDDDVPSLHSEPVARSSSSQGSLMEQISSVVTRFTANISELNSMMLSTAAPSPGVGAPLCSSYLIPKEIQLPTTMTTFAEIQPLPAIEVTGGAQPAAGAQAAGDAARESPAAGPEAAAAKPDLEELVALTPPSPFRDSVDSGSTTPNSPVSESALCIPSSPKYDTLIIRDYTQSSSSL

As for `O=C1N[C@@H](c2cccc(C#Cc3ccccc3F)n2)[C@H](c2ccccc2)O1` (single isomer, unassigned) [Example 15], the EC50 was above 1 µM.

On to `O=C1N[C@@H](c2cc(C#Cc3ccccc3)ccn2)[C@H](c2ccccc2)O1` (single isomer, unassigned) [Example 19], for which the EC50 was above 1 µM.

Take `COc1cccc([C@H]2OC(=O)N[C@@H]2c2cccc(C#Cc3cccc(N(C)C)c3)c2)c1` [Example 58, (4R,5R)-4-(3-((3-(Dimethylamino)phenyl)ethnyl)phenyl)-5-(3-methoxyphenyl)oxazolidin-2-one]: the EC50 was above 30 µM.

`C[C@]1(c2cccc(F)c2)OC(=O)N[C@H]1c1cncc(C#Cc2ccccc2)c1` [Example 223] registered an EC50 of 0.1 to 1 µM.

As for `O=C1N[C@H](c2cc(C#Cc3ccccc3)ccn2)[C@@H](c2ccccc2)O1` (single isomer, unassigned) [Example 18], the EC50 was above 30 µM.

The molecule `O=C1N[C@H](c2cncc(C#Cc3ccc(Cl)c(Cl)c3)c2)[C@@H](c2cc(F)ccc2F)O1` [Example 383, (4R,5R)-4-(5-((3,4-dichlorophenyl)ethynyl)pyridin-3-y1)-5-(2,5-difluorophenyl)oxazolidin-2-one] had an EC50 above 1 µM.

On to `O=C1N[C@@H](c2cc(C#Cc3ccccc3)ccn2)[C@H](c2ccc(F)cc2)O1` (single isomer, unassigned) [Example 298], for which the half-maximal effective concentration (EC50) is 0.1 to 1 µM and 0.232 µM.

Molecule `O=C1N[C@H](c2cccc(C#Cc3ccccn3)n2)[C@@H](c2ccccc2)O1` (single isomer, unassigned) [Example 24] returned an EC50 above 1 µM.

On to `O=C1N[C@@H](c2cc(C#Cc3ccccc3F)ccn2)[C@H](c2ccc(F)cc2)O1` (single isomer, unassigned) [Example 354], for which the EC50 was 0.1 to 1 µM and 0.392 µM.

The molecule `O=C1N[C@H](c2ccc(C#Cc3ccccc3)nc2)[C@@H](c2cccc(F)c2)O1` [Example 408, (4R,5R)-5-(3-Fluorophenyl)-4-(6-(phenylethynyl)pyridin-3-yl)oxazolidin-2-one] came in with a concentration giving a half-maximal response (EC50) of 0.1 to 1 µM.

The molecule `O=C1N[C@H](c2cccc(C#Cc3ccccc3)c2)C(c2cccs2)O1` (single isomer, unassigned) [Example 104] registered an EC50 below 0.1 µM.

`O=C1N[C@H](c2cccc(C#Cc3cncc(F)c3)c2)[C@@H](c2ccncn2)O1` [Example 244] returned an EC50 above 1 µM.

In turn, `O=C1NC(c2cccc(C#Cc3ccccc3)c2)C(c2cccc(F)c2)O1` (stereo not drawn) [Example 113] yielded an EC50 of 0.1 to 1 µM.

For `O=C1N[C@@H](c2cccc(C#Cc3ccccc3)n2)[C@H](c2cccc(F)c2)O1` [Example 218], the EC50 was above 1 µM.

Take `O=C1N[C@H](c2cncc(C#Cc3ccccc3)c2)[C@@H](c2ccccc2F)O1` [Example 404, (4R,5R)-5-(2-Fluorophenyl)-4-(5-(phenylethynyl)pyridin-3-yl)oxazolidin-2-one]: the EC50 was below 0.1 µM.

For `O=C1N[C@@H](c2cccc(C#Cc3ccccc3)n2)[C@H](c2cc(F)cc(F)c2)O1` (single isomer, unassigned) [Example 316], the EC50 is above 1 µM.

In turn, `O=C1N[C@H](c2cc(C#Cc3ccnc(F)c3)cnc2F)[C@@H](c2cccc(F)c2)O1` [Example 141, (4R,5R)-4-(2-Fluoro-5-((2-fluoropyridin-4-yl)ethynyl)pyridin-3-yl)-5-(3-fluorophenyl)oxazolidin-2-one] registered an EC50 below 0.1 µM.

`O=C1N[C@H](c2cncc(C#Cc3ccccc3)c2)[C@@H](c2ccccc2)O1` (single isomer, unassigned) [Example 38] showed an EC50 above 1 µM.

`COc1cccc([C@H]2OC(=O)N[C@@H]2c2cncc(C#Cc3ccccc3)c2)c1` (single isomer, unassigned) [Example 33] returned an EC50 below 0.1 µM.

`COc1cccc([C@H]2OC(=O)N[C@@H]2c2cccc(C#Cc3cncc(Cl)c3)c2)c1` [Example 50, (4R,5R)-4-(3-((5-Chloropyridin-3-yl)ethnyl)phenyl)-5-(3-methoxyphenyl)oxazolidin-2-one]: the EC50 was 0.1 to 1 µM and 0.353 µM.

`Cc1noc([C@H]2OC(=O)N[C@@H]2c2cccc(C#Cc3ccccc3)c2)n1` [Example 166]: the EC50 was above 1 µM.

Molecule `O=C1N[C@H](c2cncc(C#Cc3ccccc3)c2)[C@@H](c2ncco2)O1` [Example 339, (4R,5S)-5-(oxazol-2-yl)-4-(5-(phenylethynyl)pyridin-3-yl)oxazolidin-2-one] gave an EC50 above 1 µM.

On to `O=C1N[C@H](c2cc(C#Cc3cncc(F)c3)cnc2F)[C@@H](c2ccc(F)cc2)O1` [Example 143, (4R,5R)-4-(2-Fluoro-5-((5-fluoropyridin-3-yl)ethynyl)pyridin-3-yl)-5-(4-fluorophenyl)oxazolidin-2-one], for which the EC50 is below 0.1 µM.

With `O=C1N[C@H](c2nccc(C#Cc3ccccc3)n2)[C@@H](c2cccc(F)c2)O1` (racemic) [Example 272], the EC50 was above 1 µM.

On to `O=C1N[C@@H](c2cncc(C#Cc3ccccc3)c2)[C@H](c2cccnc2)O1` [Example 199], for which the EC50 was above 1 µM.

`O=C1N[C@H](c2ccnc(C#Cc3ccccc3)n2)[C@@H](c2cccc(F)c2)O1` [Example 275]: the EC50 was below 0.1 µM.

On to `O=C1N[C@@H](c2cccc(C#Cc3cccnc3)c2)[C@H](c2cnccn2)O1` [Example 248], for which the EC50 was above 1 µM.

With `N#Cc1ccc([C@H]2OC(=O)N[C@@H]2c2cncc(C#Cc3ccccc3)c2)cc1` [Example 365, 4-((4R,5R)-2-Oxo-4-(5-(phenylethynyl)pyridin-3-yl)oxazolidin-5-yl)benzonitrile], the EC50 was below 0.1 µM.

With `O=C1N[C@H](c2cccc(C#Cc3ccccc3)c2)[C@@H](c2ccncc2)O1` [Example 234], the EC50 is < 0.1 µM and 0.0027 µM.

Regarding `CCOc1ncc(C#Cc2cccc([C@H]3NC(=O)O[C@@H]3c3cccc(OC)c3)c2)cn1` [Example 94, (4R,5R)-4-(3-((2-Ethoxypyrimidin-5-yl)ethynyl)phenyl)-5-(3-methoxyphenyl)oxazolidin-2-one], the EC50 was above 1 µM.

Take `COc1ncc(C#Cc2ccccc2)cc1[C@H]1NC(=O)O[C@@H]1c1cc(F)ccc1F` [Example 303, (4R,5R)-5-(2,5-Difluorophenyl)-4-(2-methoxy-5-(phenylethynyl)pyridin-3-yl)oxazolidin-2-one]: the EC50 was above 1 µM.

As to `O=C1N[C@@H](c2cncc(C#Cc3ccccc3)c2)[C@@H](c2ccncn2)O1` (single isomer, unassigned) [Example 319], the EC50 is above 1 µM.

Regarding `O=C1N[C@H](c2cc(C#Cc3cccc(Cl)c3)ccn2)[C@@H](c2ccc(F)cc2)O1` (single isomer, unassigned) [Example 347], the EC50 is above 1 µM.

Turning to `O=C1N[C@H](c2cncc(C#Cc3ccncc3)c2)[C@@H](c2ccc(F)cc2)O1` [Example 213], the EC50 was below 0.1 µM.

`Cc1ccccc1C#Cc1cncc([C@H]2NC(=O)O[C@@H]2c2cc(F)ccc2F)c1` [Example 390, (4R,5R)-5-(2,5-difluorophenyl)-4-(5-(o-tolylethynyl)pyridin-3-yl)oxazolidin-2-one] yielded an EC50 of 0.1 to 1 µM.

For the molecule `O=C1N[C@H](c2cccc(C#Cc3cccnc3)n2)[C@@H](c2ccccc2)O1` (single isomer, unassigned) [Example 26], the EC50 was 0.1 to 1 µM and 0.367 µM.

For the molecule `COc1cccc([C@H]2OC(=O)N[C@@H]2c2cccc(C#Cc3cnccc3OC)c2)c1` [Example 92, (4R,5R)-5-(3-Methoxyphenyl)-4-(3-((4-methoxypyridin-3-yl)ethynyl)phenyl)oxazolidin-2-one], the EC50 was above 1 µM.

Regarding `COc1cccc([C@H]2OC(=O)N[C@@H]2c2cccc(C#Cc3ccnc(F)c3)c2)c1` [Example 73, (4R,5R)-4-(3-((2-Fluoropyridin-4-yl)ethynyl)phenyl)-5-(3-methoxyphenyl)oxazolidin-2-one], the EC50 is below 0.1 µM.

With `O=C1N[C@H](c2cccc(C#Cc3ccccc3)c2)[C@@H](c2cccnn2)O1` [Example 243], the EC50 is 0.1 to 1 µM and 0.272 µM.

`O=C1N[C@H](c2ccc(C#Cc3ccccc3)cn2)[C@@H](c2cccc(F)c2)O1` [Example 410, (4R,5R)-5-(3-fluorophenyl)-4-(5-(phenylethynyl)pyridin-2-yl)oxazolidin-2-one] yielded an EC50 above 1 µM.

Consider `O=C1N[C@@H](c2cncc(C#Cc3ccccc3)c2)[C@H](c2ccc(Cl)cc2)O1` (single isomer, unassigned) [Example 359], for which the EC50 fell in the range of 0.1 to 1 µM.

On to `O=C1N[C@H](c2cc(C#Cc3ccnc(C4CC4)c3)cnc2F)[C@@H](c2ccc(F)cc2)O1` [Example 152, (4R,5R)-4-(5-((2-Cyclopropylpyridin-4-yl)ethynyl)-2-fluoropyridin-3-yl)-5-(4-fluorophenyl)oxazolidin-2-one], for which the EC50 was above 1 µM.

Turning to `O=C1N[C@@H](c2cccc(C#Cc3ccccc3)c2)[C@H](c2cnccn2)O1` [Example 245], the EC50 is above 1 µM.

Molecule `O=C1N[C@@H](c2ccc(C#Cc3ccccc3)cn2)[C@H](c2cccc(F)c2)O1` [Example 409, (4S,5S)-5-(3-Fluorophenyl)-4-(5-(phenylethynyl)pyridin-2-yl)oxazolidin-2-one] came in with an EC50 of 0.1 to 1 µM.

In the case of `O=C1N[C@H](c2cccc(C#Cc3ccccn3)c2)[C@@H](c2ccncc2)O1` [Example 233], the EC50 is below 0.1 µM.

Take `O=C1N[C@H](c2cncc(C#Cc3cncnc3)c2)[C@@H](c2cccc(F)c2)O1` [Example 398, (4R,5R)-5-(3-fluorophenyl)-4-(5-(pyrimidin-5-ylethynyl)pyridin-3-yl)oxazolidin-2-one]: the EC50 was 0.1 to 1 µM and 0.141 µM.

`O=C1N[C@H](c2cncc(C#Cc3cccc(C(F)(F)F)c3)c2)[C@@H](c2cccc(F)c2)O1` [Example 402, (4R,5R)-5-(3-fluorophenyl)-4-(5((3-(trifluoromethyl)phenyl)ethynyl)pyridin-3-yl)oxazolidin-2-one] gave an EC50 above 3 µM.

For the molecule `COc1cccc([C@H]2OC(=O)N[C@@H]2c2cccc(C#Cc3ccnc(Cl)c3)c2)c1` [Example 57, (4R,5R)-4-(3-((2-Chloropyridin-4-yl)ethynyl)phenyl)-5-(3-methoxyphenyl)oxazolidin-2-one], the EC50 is above 30 µM.

The EC50 is the concentration that produces a half-maximal response. A low value points to a more potent agent.
